The data set is described as follows: Cone/Plate Viscosity Measurement. Type of data set: physicochemical. The following applies: composition such as C. Ex. 1; thickener level not stated. Here is the method: The viscosity of the personal cleansing composition is measured by a Cone/Plate Brookfield DV12T, by Brookfield Engineering Laboratories, Stoughton, MA. The cone used (Spindle CPA-41z) has a diameter of […] and 3° angle. The viscosity is determined using a steady state flow experiment at constant shear rate of 2 s^−1 and at temperature of 26.5° C. The sample size is 2.5 mL.

cocamide MEA: the “Effect of a thickener on enhancing the viscosity of a personal cleansing composition” value is recorded as “good response”.

The record behind these values is patent US20230329993A1, “PERSONAL CLEANSING COMPOSITION FREE OF ALKYL SULFATE OR ALKYL ETHER SULFATE TYPE OF SURFACTANTS” (The Procter & Gamble Company, priority 2022, published 2023).
